Results: PubChem BioAssay (NCI)
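How tested: cells in 96-well plates exposed to compound for 48 hours at five concentrations. GI50: concentration for 50% inhibition of growth. The concentration for full growth arrest is given as TGI.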

The molecules below were run on SNB-19 CNS (assay: NCI tumour cell line growth inhibition, 48 h).

Q: C=CCCCC12CCCc3cccc(c31)NC2=O (stereo not drawn) was tested. Which TGI did it give?
A: The TGI was 61.9 µM.

Q: Which TGI does the source give for COC1C=CC23c4cc5c(cc4C(O)OC2CN(C)C3C1)OCO5 (stereo not drawn) here?
A: Its TGI is 7.36 µM.

Q: Which TGI does the source give for O=C(O[C@H](/C=C/c1ccccc1)P1(=O)N(Cc2ccccc2)[C@@H]2CCCC[C@H]2N1Cc1ccccc1)c1ccccc1 here?
A: Its TGI is greater than 100 µM.

Q: For O=C(O)CNC(=O)c1ccc([As](=O)(O)O)cc1, which TGI is on record?
A: Its TGI is greater than 100 µM.

Q: With Cc1cccc(N(CCC#N)S(=O)(=O)c2ccccc2)c1 as the molecule, how does the TGI read?
A: The TGI was greater than 100 µM.

These molecules were tested on SNB-75 CNS (assay: NCI tumour cell line growth inhibition, 48 h).

Q: How did the TGI turn out when COc1ccc(NC2Oc3cc4c(cc3C(c3cc(OC)c(OC)c(OC)c3)C2C)OCO4)cc1 (stereo not drawn) was run?
A: Its TGI is greater than 100 µM.

Q: How did the TGI turn out when Cc1ccc(C2=Nc3c(c(C)nn3-c3ccccc3)N=C(C(=O)O)C2)cc1 was run?
A: The TGI was greater than 10 µM.

Q: How did the TGI turn out when O=C(OCc1ccccc1)OOC(=O)OCc1ccccc1 was run?
A: The TGI was greater than 100 µM.

Q: Which TGI does the source give for Cc1ccc(C(=O)Nc2ccc(CP(=O)(O)O)cc2)cc1NC(=O)c1cccc(NC(=O)Nc2cccc(C(=O)Nc3cc(C(=O)Nc4ccc(CP(=O)(O)O)cc4)ccc3C)c2)c1 here?
A: Its TGI is greater than 100 µM.

Q: Which TGI does the source give for OCc1ccccc1C1CSCSC1 here?
A: Its TGI is greater than 100 µM.

Q: CC(C)c1c(P(=O)(c2ccccc2)c2ccccc2)n(C)c2ccccc12 was tested. Which TGI did it give?
A: Its TGI is greater than 100 µM.

Q: c1ccc(N=c2snc(-c3ccccc3)s2)cc1 was tested. Which TGI did it give?
A: The TGI was greater than 100 µM.

Q: For CC(C)/C(Cl)=N\OC(=O)NNc1ccccc1, which TGI is on record?
A: The TGI was greater than 100 µM.

Q: With O=C(/C=C/c1cccs1)c1ccc(Cl)cc1 as the molecule, how does the TGI read?
A: The TGI was greater than 100 µM.

Q: With Cc1oc2nc(N(C)C)n3nnnc3c2c1C as the molecule, how does the TGI read?
A: The TGI was greater than 100 µM.

Q: How did the TGI turn out when CN(C)c1ccc(/C(Br)=C2\OC(=O)c3ccccc32)cc1 was run?
A: The TGI was greater than 100 µM.

Q: How did the TGI turn out when c1ccc2c(c1)CCCN1CCc3ccccc3C21 (stereo not drawn) was run?
A: Its TGI is greater than 100 µM.

Q: Which TGI does the source give for CN1CCN(C(=S)N(C)C(=O)c2ccc(Cl)cc2)CC1 here?
A: Its TGI is greater than 100 µM.

Q: How did the TGI turn out when CC(=O)Nc1ccc(Cl)c(Cl)c1 was run?
A: Its TGI is greater than 100 µM.

Q: How did the TGI turn out when Cc1cc2cccc(Cl)c2nc1C(=O)c1ccccc1 was run?
A: The TGI was 56.8 µM.

Q: How did the TGI turn out when COc1ccc(CNc2nc3ccc(C(F)(F)F)cc3nc2-c2ccccc2)cc1OC was run?
A: The TGI was greater than 100 µM.

Q: How did the TGI turn out when CC(=O)CC(=O)c1cc2c(=O)oc(C)cc2oc1=O was run?
A: Its TGI is greater than 37.5 µM.

Q: Which TGI does the source give for O=C(CCc1ccc(O)cc1)c1c(O)cc(O)cc1OC1OC(CO)C(O)C(O)C1O (stereo not drawn) here?
A: Its TGI is greater than 100 µM.

Q: How did the TGI turn out when COc1cc2c(cc1OC)C(=O)/C(=C/c1cc(C)c(O)c(C)c1)C2 was run?
A: Its TGI is greater than 100 µM.

Q: CC(C)=CC1C(C(=O)O)C1(C)C (stereo not drawn) was tested. Which TGI did it give?
A: The TGI was greater than 750 µM.

Q: How did the GI50 turn out when COc1cc([C@@H]2c3cc4c(cc3C[C@H]3COC(=O)[C@@H]32)OCO4)cc(OC)c1OC was run?
A: Its GI50 is 0.0042 µM.

Q: And the TGI?
A: Its TGI is greater than 13.3 µM.

Q: How did the TGI turn out when Cc1cc(O)cc(O)c1N=Nc1ccc([N+](=O)[O-])cc1 was run?
A: Its TGI is 45.6 µM.

Q: How did the TGI turn out when C[C@@H]1C[C@H](O)[C@]2(O)O[C@@H]3C[C@@]4(C=O)[C@@H](CC=C5[C@@H]4CC[C@]4(C)[C@@H](C6=CC(=O)OC6)CC[C@]54O)C[C@H]3O[C@@H]2O1 was run?
A: The TGI was 0.916 µM.

Q: For CC(C)(CO)N1C(=O)c2ccccc2C1(O)c1ccc(Cl)cc1 (stereo not drawn), which TGI is on record?
A: Its TGI is greater than 100 µM.

Q: For O=C(O)CNC(=O)c1ccc([As](=O)(O)O)cc1, which TGI is on record?
A: The TGI was greater than 100 µM.

Q: Cc1cccc(N(CCC#N)S(=O)(=O)c2ccccc2)c1 was tested. Which TGI did it give?
A: The TGI was greater than 100 µM.

Each molecule was assayed on SR leukemia (assay: NCI tumour cell line growth inhibition, 48 h).

Q: O=C(OCc1ccccc1)OOC(=O)OCc1ccccc1 was tested. Which TGI did it give?
A: Its TGI is greater than 100 µM.

Q: How did the TGI turn out when CC(C)c1c(P(=O)(c2ccccc2)c2ccccc2)n(C)c2ccccc12 was run?
A: The TGI was greater than 100 µM.

Q: c1ccc(N=c2snc(-c3ccccc3)s2)cc1 was tested. Which TGI did it give?
A: Its TGI is greater than 100 µM.

Q: Which TGI does the source give for O=C(/C=C/c1cccs1)c1ccc(Cl)cc1 here?
A: Its TGI is 71.1 µM.

Q: For CN(C)c1ccc(/C(Br)=C2\OC(=O)c3ccccc32)cc1, which TGI is on record?
A: Its TGI is greater than 100 µM.

Q: c1ccc2c(c1)CCCN1CCc3ccccc3C21 (stereo not drawn) was tested. Which TGI did it give?
A: Its TGI is greater than 100 µM.

Q: Which TGI does the source give for CC(=O)Nc1ccc(Cl)c(Cl)c1 here?
A: The TGI was greater than 100 µM.

Q: Which TGI does the source give for Cc1cc2cccc(Cl)c2nc1C(=O)c1ccccc1 here?
A: Its TGI is greater than 100 µM.

Q: How did the TGI turn out when COc1ccc(CNc2nc3ccc(C(F)(F)F)cc3nc2-c2ccccc2)cc1OC was run?
A: The TGI was greater than 100 µM.

Q: Which TGI does the source give for CC(=O)CC(=O)c1cc2c(=O)oc(C)cc2oc1=O here?
A: The TGI was greater than 37.5 µM.

Q: Which TGI does the source give for COc1cccc(C2c3cc4c(cc3OC(N3CCCC3)C2C)OCO4)c1OC (stereo not drawn) here?
A: The TGI was 15.2 µM.

Q: How did the TGI turn out when COc1cc2c(cc1OC)C(=O)/C(=C/c1cc(C)c(O)c(C)c1)C2 was run?
A: The TGI was greater than 100 µM.

Q: How did the TGI turn out when C=CCCCC12CCCc3cccc(c31)NC2=O (stereo not drawn) was run?
A: Its TGI is greater than 100 µM.

Q: For COC1C=CC23c4cc5c(cc4C(O)OC2CN(C)C3C1)OCO5 (stereo not drawn), which TGI is on record?
A: Its TGI is 4.59 µM.

Q: How did the TGI turn out when O=C(O[C@H](/C=C/c1ccccc1)P1(=O)N(Cc2ccccc2)[C@@H]2CCCC[C@H]2N1Cc1ccccc1)c1ccccc1 was run?
A: The TGI was greater than 100 µM.

Q: With Cc1cccc(N(CCC#N)S(=O)(=O)c2ccccc2)c1 as the molecule, how does the TGI read?
A: Its TGI is greater than 100 µM.

These molecules were tested on UACC-257 melanoma (assay: NCI tumour cell line growth inhibition, 48 h).

Q: With COc1ccc(NC2Oc3cc4c(cc3C(c3cc(OC)c(OC)c(OC)c3)C2C)OCO4)cc1 (stereo not drawn) as the molecule, how does the TGI read?
A: Its TGI is greater than 78.5 µM.

Q: For Cc1ccc(C2=Nc3c(c(C)nn3-c3ccccc3)N=C(C(=O)O)C2)cc1, which TGI is on record?
A: The TGI was greater than 10 µM.

Q: Which TGI does the source give for O=C(OCc1ccccc1)OOC(=O)OCc1ccccc1 here?
A: Its TGI is greater than 100 µM.

Q: Cc1ccc(C(=O)Nc2ccc(CP(=O)(O)O)cc2)cc1NC(=O)c1cccc(NC(=O)Nc2cccc(C(=O)Nc3cc(C(=O)Nc4ccc(CP(=O)(O)O)cc4)ccc3C)c2)c1 was tested. Which TGI did it give?
A: The TGI was greater than 100 µM.

Q: How did the TGI turn out when OCc1ccccc1C1CSCSC1 was run?
A: Its TGI is greater than 100 µM.

Q: CC(C)c1c(P(=O)(c2ccccc2)c2ccccc2)n(C)c2ccccc12 was tested. Which TGI did it give?
A: The TGI was greater than 100 µM.

Q: With c1ccc(N=c2snc(-c3ccccc3)s2)cc1 as the molecule, how does the TGI read?
A: Its TGI is greater than 100 µM.

Q: Which TGI does the source give for CC(C)/C(Cl)=N\OC(=O)NNc1ccccc1 here?
A: Its TGI is greater than 100 µM.

Q: For O=C(/C=C/c1cccs1)c1ccc(Cl)cc1, which TGI is on record?
A: The TGI was greater than 100 µM.

Q: For Cc1oc2nc(N(C)C)n3nnnc3c2c1C, which TGI is on record?
A: Its TGI is greater than 100 µM.

Q: With CN(C)c1ccc(/C(Br)=C2\OC(=O)c3ccccc32)cc1 as the molecule, how does the TGI read?
A: Its TGI is greater than 100 µM.

Q: Which TGI does the source give for c1ccc2c(c1)CCCN1CCc3ccccc3C21 (stereo not drawn) here?
A: Its TGI is greater than 100 µM.

Q: For CN1CCN(C(=S)N(C)C(=O)c2ccc(Cl)cc2)CC1, which TGI is on record?
A: The TGI was greater than 100 µM.

Q: For CC(=O)Nc1ccc(Cl)c(Cl)c1, which TGI is on record?
A: Its TGI is greater than 100 µM.

Q: How did the TGI turn out when Cc1cc2cccc(Cl)c2nc1C(=O)c1ccccc1 was run?
A: The TGI was 66.9 µM.

Q: For COc1ccc(CNc2nc3ccc(C(F)(F)F)cc3nc2-c2ccccc2)cc1OC, which TGI is on record?
A: Its TGI is greater than 100 µM.

Q: With CC(=O)CC(=O)c1cc2c(=O)oc(C)cc2oc1=O as the molecule, how does the TGI read?
A: The TGI was greater than 37.5 µM.

Q: O=C(CCc1ccc(O)cc1)c1c(O)cc(O)cc1OC1OC(CO)C(O)C(O)C1O (stereo not drawn) was tested. Which TGI did it give?
A: The TGI was greater than 100 µM.

Q: Which TGI does the source give for COc1cc2c(cc1OC)C(=O)/C(=C/c1cc(C)c(O)c(C)c1)C2 here?
A: The TGI was greater than 100 µM.

Q: How did the TGI turn out when CC(C)=CC1C(C(=O)O)C1(C)C (stereo not drawn) was run?
A: The TGI was greater than 750 µM.

Q: With O=C1NC(=S)NC(=O)C1C(c1ccccc1[N+](=O)[O-])C1C(=O)NC(=S)NC1=O as the molecule, how does the TGI read?
A: Its TGI is greater than 100 µM.

Q: How did the TGI turn out when COc1cc([C@@H]2c3cc4c(cc3C[C@H]3COC(=O)[C@@H]32)OCO4)cc(OC)c1OC was run?
A: The TGI was greater than 5 µM.

Q: How did the TGI turn out when C[C@]12CC/C(=N\O)C=C1CC[C@@H]1[C@@H]2CC[C@]2(C)C(=N/O)/C(=C/c3cccnc3)C[C@@H]12 was run?
A: Its TGI is 57.2 µM.

Q: For Cc1cc(O)cc(O)c1N=Nc1ccc([N+](=O)[O-])cc1, which TGI is on record?
A: The TGI was 79.5 µM.

Q: For C[C@@H]1C[C@H](O)[C@]2(O)O[C@@H]3C[C@@]4(C=O)[C@@H](CC=C5[C@@H]4CC[C@]4(C)[C@@H](C6=CC(=O)OC6)CC[C@]54O)C[C@H]3O[C@@H]2O1, which TGI is on record?
A: Its TGI is 0.372 µM.

Q: Which TGI does the source give for CC(C)(CO)N1C(=O)c2ccccc2C1(O)c1ccc(Cl)cc1 (stereo not drawn) here?
A: Its TGI is greater than 100 µM.

Q: For C=CCCCC12CCCc3cccc(c31)NC2=O (stereo not drawn), which TGI is on record?
A: The TGI was 50.4 µM.

Q: For COC1C=CC23c4cc5c(cc4C(O)OC2CN(C)C3C1)OCO5 (stereo not drawn), which TGI is on record?
A: Its TGI is 7.3 µM.

Q: For O=C(O[C@H](/C=C/c1ccccc1)P1(=O)N(Cc2ccccc2)[C@@H]2CCCC[C@H]2N1Cc1ccccc1)c1ccccc1, which TGI is on record?
A: Its TGI is greater than 100 µM.

Q: With Cc1cccc(N(CCC#N)S(=O)(=O)c2ccccc2)c1 as the molecule, how does the TGI read?
A: Its TGI is greater than 100 µM.
